Experimental data from patent publication US20260232644A1, “Compositions Comprising an Inhibitor of Galectin-3” (University of Liverpool, priority 2023, published 2026).
pIC50, pKd: −log10 of the molar value. Structures can show the parent of a compound that is named as a salt.

Legend:
Galectin-3 = target: T1, Galectin-3 (Homo sapiens, UniProt P17931); test: Galectin-3 binding to asialofetuin (ASF) ELISA
T1 construct: made in house; host or cells: E. coli
Procedure: (§1) Effect of the inhibitors on galectin binding to its ligand asialo fetuin (ASF) was measured by galectin ELISA. Nanty-six well plates were coated overnight with 20 μg/ml ASF in coating buffer (15 mM Na2CO3 17 mM NaHCO3 pH 9.6.). The wells were washed twice with PBS and incubated with blocking buffer (1% BSA in PBS) for 1 hr. The supernatants were removed and replaced with 5 μg/ml recombinant human galectin without or with different concentrations of the compound inhibitors or lactose in blocking buffer for 1 hr at room temperature. The wells were washed and incubated with 1 μg/ml anti-galectin antibody for 2 hr. Following addition of HRP-conjugated secondary antibody for 1 hr, FAST OPD development solution was added for 15-20 minutes. The reaction was terminated by addition of 4M sulphuric acid. The plates were read at 492 nm (reference wavelength 595 nm) by a microplate reader.

yeast = test: Genotoxicity in yeast
[1] = target: T2, C-terminal (aa 115-250) Galectin-3 (Homo sapiens, UniProt P17931); test: Tryptophan Fluorescence Spectroscopy (TFS) binding affinity, C-terminal Galectin-3
T2 construct: made in house; host or cells: E. coli
T2 sequence (P17931 115-250): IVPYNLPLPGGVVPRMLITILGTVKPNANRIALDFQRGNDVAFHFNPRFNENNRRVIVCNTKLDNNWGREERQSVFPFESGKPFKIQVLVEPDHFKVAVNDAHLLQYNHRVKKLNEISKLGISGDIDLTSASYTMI
Procedure: The binding affinity of the inhibitors to galectin-3 was determined by Intrinsic Tryptophan Fluorescence Spectroscopy (TFS) exactly as we described recently [Sindrewicz, P., et al., Intrinsic tryptophan fluorescence spectroscopy reliably determines galectin-ligand interactions. Sci Rep, 2019. 9(1): p. 11851]. The Galectin-3 concentration used was 10 μM and the inhibitor titration concentrations were from 0 to 224 μM. DMSO/control buffer (PBS with 2 mM EDTA) titrations were performed and used for background subtraction.

[2] = test system: human melanoma ACA19 cells; test: Galectin-3-mediated ACA19 cell adhesion to HUVECs; format: cell-based; settings: Galectin-3 2 μg/ml, various concentrations
Procedure: HUVEC cells at 1×10^5 cells/ml in EGM medium were seeded into 24 well plates pre-inserted with 13 mm glass coverslip. The cells were incubated at 37° C. at 5% CO2 for 24 hr for monolayer formation. AGA19+ or SW620 cell suspension (5×10^5 cells/ml in DMEM) was introduced with 5 μl/ml fluorescent cell labelling solution DiL for 30 min at 37° C. The fluorescent labelled cells were washed twice with PBS and resuspended into 1×10^5 cells/ml in DMEM. The cancer cell suspension was then introduced with galectin-3 (2 μg/ml) and various concentrations of the compound inhibitors at 37° C. for 1 hr. The wells were carefully washed twice with PBS to remove the non-adhesion cells before the cells in the wells were fixed with 2% paraformaldehyde for 10 min. The glass coverslip was carefully removed from the plate, placed on a glass slide. After addition of fluorescence mounting medium containing DAPI, fluorescence labelled cells were quantified under a fluorescence microscope.

[3] = test system: THP-1 differentiated macrophages; test: Galectin-3-induced TNFα secretion from macrophages (ELISA); format: cell-based; settings: Galectin-3 10 μg/ml, various concentrations
Procedure: (§2) Effect of the compound inhibitors on secretion of pro-inflammatory cytokines from macrophages were assessed in THP-1 monocyte differentiated macrophages. THP-1 cells were induced to differentiation into macrophages by incubation with 10 ng/ml PMA for 48 h at 37° C. The culture medium was then replaced with fresh medium without or with 10 μg/ml galectin-3 and various concentrations of the compound inhibitors for 24 h at 37° C. The culture medium was collected and the concentrations of TNFα and IL-1β in the culture medium were determined by TNFα and IL-1β ELISA.

[4] = test system: THP-1 differentiated macrophages; test: Galectin-3-induced IL-1β secretion from macrophages (ELISA); format: cell-based; settings: Galectin-3 10 μg/ml, various concentrations
Procedure: as §2

[5] = test system: triple-negative breast cancer MDA-MB-231 cells; test: Triple-negative breast cancer cell adhesion to basement matrix; format: cell-based, human; settings: Homo sapiens, MDA-MB-231
Procedure: (§3) Nanty-six well plates were coated with 50 μl Matrigel (1:30 diluted in PBS) at 37° C. for 1 hour.
(§4) Cancer cells, pre-labelled with fluorescent die DiI at 37° C. for 20 minutes, were washed twice with PBS and resuspended into 3×10^4 cells/ml in serum-free medium. The matrix-coated 96-well plates were washed twice with PBS before introduction of 100μ cell suspension with different concentrations of the inhibitors or PBS/DMSO (control) for 1 hour at 37° C. The plates were washed twice with PBS before three randomly selected Field of Views (FOVs) were recorded by fluorescence microscope and number of adhesion cells were quantified by Image J.
(§5) MDAMB-231 or PANC-1 cells were seeded into 6-well plate (2×10^5 cells) and cultured at 37° C. for 24 hour. Galectin-3 CRISPR Cas9 Knockout plasmid (2 μg) and galectin-3 HDR plasmid (2 μg) was mixed with Plasmid Transfection Medium (21 μl) for 5 minutes before addition to a mixture of lipofectamine STEM Transfection Reagent (STEM00001) (1 μl) and Plasmid Transfection Medium (25 μl) for 10 minutes at room temperature. The cells in the 6-well plates were washed and introduced with the Plasmid DNA/Lipofectamine STEM Transfection Reagent complex at 37° C. for 24 hour. The culture medium was replaced with fresh antibiotics-free medium for further 24 hour before introduction of 10 μg/mL puromycin-containing medium every three days. Successful co-transfection of the CRISPR/Cas9 KO Plasmid and HDR Plasmid was confirmed by expression of red fluorescence protein of the cells. Galectin-3 knockout in the cells was further confirmed by immunoblotting.

[6] = test system: human pancreatic cancer PANC1 cells; test: Pancreatic cancer cell adhesion to basement matrix; format: cell-based
Procedure: as §3, §4, §5

Galectin-8 = target: T3, Galectin-8 (Homo sapiens, UniProt O00214); test: Galectin-8 binding to asialofetuin ELISA; settings: Gal-8 5 μg/ml, ASF 20 μg/ml
T3 construct: purchased R&D Systems (Abingdon, UK)
T3 sequence (O00214 1-317): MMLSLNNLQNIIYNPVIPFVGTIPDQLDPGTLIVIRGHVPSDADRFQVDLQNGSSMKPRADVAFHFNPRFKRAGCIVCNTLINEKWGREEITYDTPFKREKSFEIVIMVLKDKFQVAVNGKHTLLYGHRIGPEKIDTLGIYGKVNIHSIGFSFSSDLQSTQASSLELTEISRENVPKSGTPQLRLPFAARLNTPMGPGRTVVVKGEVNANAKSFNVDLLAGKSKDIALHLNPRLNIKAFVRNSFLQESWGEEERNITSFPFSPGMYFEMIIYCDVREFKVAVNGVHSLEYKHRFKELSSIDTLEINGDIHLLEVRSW
Procedure: as §1

[7] = test system: human lung cancer H1975 cells; test: Lung cancer cell adhesion to basement matrix; format: cell-based
Procedure: as §3, §4

T1 sequence (P17931 whole entry): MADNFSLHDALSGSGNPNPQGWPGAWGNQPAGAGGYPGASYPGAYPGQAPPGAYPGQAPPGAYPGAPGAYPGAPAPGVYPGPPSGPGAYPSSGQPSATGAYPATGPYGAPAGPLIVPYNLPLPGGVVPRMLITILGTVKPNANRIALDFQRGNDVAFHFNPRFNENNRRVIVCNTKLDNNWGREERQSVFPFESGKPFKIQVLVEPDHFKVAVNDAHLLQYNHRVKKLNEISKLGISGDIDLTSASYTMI

## NC1CCN(c2nc3c(cc2F)c(=O)c(C(=O)O)cn3-c2ccc(F)cc2F)C1 (centres unmarked) [Formula X, Tosufloxacin tosylate]
Galectin-3; Galectin-3 5 μg/ml, ASF 20 μg/ml, different concentrations of compound, ELISA
  Inhibition of Galectin-3 binding to its ligand asialofetuin (ASF): inhibit galectin-3 binding to ASF in a dose-dependent manner
Galectin-3; read-out: IC50, inhibition of Galectin-3 binding to its ligand
  pIC50: ≥ 5.00
yeast
  Genotoxicity in yeast: no detectable genotoxicity
[1]
  pKd: 5.15 to 5.30
[2]
  Inhibition of ACA19 cell adhesion to HUVECs: dose-dependent inhibition
[3]
  Inhibition of galectin-3-induced TNFα secretion: dose-dependent inhibition
[4]
  Inhibition of galectin-3-induced IL-1β secretion: dose-dependent inhibition
[5]
  pIC50: ~5.00
[6]; CRISPR/Cas9 Gal3KO cells
  Effect on adhesion of galectin-3 knockout (Gal3KO) PANC1 cells: lost their inhibitory effect
[6]; control cells
  Effect on adhesion of non-transfected (con) PANC1 cells: significant reduction
[6]; different concentrations
  Inhibition of PANC1 cell adhesion to matrix: dose-dependent inhibition
Galectin-8
  Effect on Galectin-8 binding to asialofetuin: does not affect binding
[7]; Homo sapiens, NCI-H1975
  pIC50: ~5.30
[7]; different concentrations
  Inhibition of H1975 cell adhesion to matrix: dose-dependent inhibition
